Measurements taken from ChEMBL document CHEMBL1131275, “Synthesis and structure-activity relationships of CP-122,721, a second-generation NK-1 receptor antagonist” (Bioorg Med Chem Lett, 1998).

Key:
Cavia porcellus [1] = species: Cavia porcellus; assay: Inhibition of capsaicin-induced plasma extravasation in guinea pig ureter by peroral dose; format: functional; conditions: po, read-out: ID50 (the source's name)
Cavia porcellus [2] = assay: Compound was tested for blockade of locomotor activity in guinea pig, elicited by icv administered Sar9Met(O2)-SP; format: functional; conditions: central, read-out: ID50 (the source's name)
Cavia porcellus [3] = species: Cavia porcellus; assay: Inhibition of aerosolized capsaicin-induced plasma protein extravasation in guinea pig lung by peroral dose; format: functional; conditions: read-out: ID50 (the source's name)
Cavia porcellus [4] = species: Cavia porcellus; assay: Compound tested for SP-induced plasma extravasation in guinea pig perorally; format: functional; conditions: po, read-out: ID50 (the source's name)
Cavia porcellus [5] = species: Cavia porcellus; assay: Compound tested for blockade of cisplatin-induced emesis in guinea pig perorally; format: functional; conditions: po, read-out: ID50 (the source's name)
Substance-P receptor = Substance-P receptor (Homo sapiens, UniProt P25103); assay: Antagonist activity for Tachykinin receptor 1 as displacement of [3H]-Substance P in human IM-9 cells; format: functional, cell-based
Substance-P receptor, sequence (P25103 whole entry): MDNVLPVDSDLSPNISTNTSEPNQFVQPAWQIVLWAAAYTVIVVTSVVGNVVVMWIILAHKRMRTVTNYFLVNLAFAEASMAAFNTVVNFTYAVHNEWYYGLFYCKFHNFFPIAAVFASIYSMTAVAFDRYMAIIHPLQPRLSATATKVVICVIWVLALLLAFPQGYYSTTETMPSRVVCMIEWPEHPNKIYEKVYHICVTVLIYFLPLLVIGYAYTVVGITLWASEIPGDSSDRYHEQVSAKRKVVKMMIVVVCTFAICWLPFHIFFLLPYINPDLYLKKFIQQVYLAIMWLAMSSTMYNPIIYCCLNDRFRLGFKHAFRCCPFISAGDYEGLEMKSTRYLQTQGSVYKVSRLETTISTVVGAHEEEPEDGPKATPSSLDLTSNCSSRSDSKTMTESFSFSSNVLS

Cavia porcellus [6] = species: Cavia porcellus; assay: Inhibition of aerosolized capsaicin-induced plasma protein extravasation in guinea pig ureter by peroral dose; format: functional; conditions: read-out: ID50 (the source's name)
Cavia porcellus [7] = assay: Compound was tested for blockade of locomotor activity in the guinea pig elicited by icv administered Sar9Met(O2)-SP; format: functional; conditions: central, read-out: ID50 (the source's name)

IC50 (Substance-P receptor) [nM]	Compound	other results
–	COc1ccc(OC(F)(F)F)cc1CN[C@H]1CCCN[C@H]1c1ccccc1	ED50 (Cavia porcellus [1]): 0.02 mg/kg; ED50 (Cavia porcellus [2]): 0.01 mg/kg; ED50 (Cavia porcellus [3]): 0.01 mg/kg; ED50 (Cavia porcellus [4]): 0.05 mg/kg; ED50 (Cavia porcellus [5]): 0.08 mg/kg
0.18	CC(C)Oc1ccc(OC(F)(F)F)cc1CN[C@H]1CCCN[C@H]1c1ccccc1	–
0.8	FC(F)(F)Oc1ccccc1CN[C@H]1CCCN[C@H]1c1ccccc1	–
10.9	Oc1ccc(OC(F)(F)F)cc1CN[C@H]1CCCN[C@H]1c1ccccc1	–
0.11	COc1ccc(N(C)S(C)(=O)=O)cc1CN[C@H]1CCCN[C@H]1c1ccccc1	–
0.14	COc1ccc(Cl)cc1CN[C@H]1CCCN[C@H]1c1ccccc1	–
0.14	CCOc1ccc(OC(F)(F)F)cc1CN[C@H]1CCCN[C@H]1c1ccccc1	–
0.09	COc1ccc(OC)c(CN[C@H]2CCCN[C@H]2c2ccccc2)c1	–
0.46	CC(C)Oc1ccccc1CN[C@H]1CCCN[C@H]1c1ccccc1	–
0.41	FC(F)Oc1ccccc1CN[C@H]1CCCN[C@H]1c1ccccc1	–
0.56	COc1ccc(N(C)C)cc1CN[C@H]1CCCN[C@H]1c1ccccc1	–
–	COc1ccccc1CN[C@H]1CCCN[C@H]1c1ccccc1 [CP-99994]	ED50 (Cavia porcellus [6]): 2.9 mg/kg; ED50 (Cavia porcellus [3]): 5 mg/kg; ED50 (Cavia porcellus [7]): 0.6 mg/kg; ED50 (Cavia porcellus [4]): 31 mg/kg
